Assays:
[1] = target: T1, ROCK2 (Homo sapiens, UniProt O75116); experiment: ROCK2 inhibition assay (ADP-Glo kinase assay, called ROCK2 binding activity); type: biochemical; conditions: 20 μM ATP, 1 hour pre-incubation, read-out: ROCK 2 (IC50 category)
T1 construct: N-terminal 6His-tagged ROCK2 catalytic domain 11-552; 6His (N); purchased Dundee University, UK; host or cells: baculovirus expression system
Protocol: ROCK2 Binding Activity: Assay for ROCK2 inhibition was performed using the protein construct N-terminal 6His-tagged ROCK2 catalytic domain 11-552 (Dundee University, UK). Protein was purified from a baculovirus expression system. Long S6 peptide ([…]) was used as substrate. Kinase reactions were carried out in 15 μl volume in a 96-well plate (black, half area) using 1.25 nM constitutively active ROCK2 kinase, 100 μM long S6 peptide, 20 μM ATP and test compound in DMSO (or DMSO only for controls). The final concentration of DMSO was 1%. Assay buffer was 50 mM HEPES pH 7.5 supplemented with 0.2 mM EDTA, 10 mM magnesium acetate, 0.01% Tween-20, 1 mM DTT and 0.01% BSA. Test compounds were pre-incubated with ROCK2 kinase for 1 hour before addition of ATP and long S6 peptide. After incubation for a further 1 hour, the amount of ADP produced was measured using ADP-Glo Kinase Assay (Promega) as per manufacturer's instructions. The luminescence was measured on a PHERAstar FS (BMG Labtech). The concentration of test compound required to inhibit ADP production by 50% (the IC50) was calculated using a four-parameter logistic function with software by Dotmatics. […] The category “+” refers to compounds with a ROCK2 or ROCK1 IC50 value of >10 μM. The category “++” refers to compounds with a ROCK2 or ROCK1 IC50 value of 10 to 3 μM. The category “+++” refers to compounds with a ROCK1 or ROCK2 IC50 value of 3 to 0.3 μM. The category “++++” refers to compounds with a ROCK1 or ROCK2 IC50 value of <0.3 μM.

[2] = target: ROCK1 (Homo sapiens, UniProt Q13464); experiment: ROCK1 inhibition assay (ROCK1 binding activity, as determined by the assay described for ROCK2); type: biochemical; conditions: read-out: ROCK 1 (IC50 category)
Sequence of ROCK1 (Q13464 whole entry, the tested form may be a part): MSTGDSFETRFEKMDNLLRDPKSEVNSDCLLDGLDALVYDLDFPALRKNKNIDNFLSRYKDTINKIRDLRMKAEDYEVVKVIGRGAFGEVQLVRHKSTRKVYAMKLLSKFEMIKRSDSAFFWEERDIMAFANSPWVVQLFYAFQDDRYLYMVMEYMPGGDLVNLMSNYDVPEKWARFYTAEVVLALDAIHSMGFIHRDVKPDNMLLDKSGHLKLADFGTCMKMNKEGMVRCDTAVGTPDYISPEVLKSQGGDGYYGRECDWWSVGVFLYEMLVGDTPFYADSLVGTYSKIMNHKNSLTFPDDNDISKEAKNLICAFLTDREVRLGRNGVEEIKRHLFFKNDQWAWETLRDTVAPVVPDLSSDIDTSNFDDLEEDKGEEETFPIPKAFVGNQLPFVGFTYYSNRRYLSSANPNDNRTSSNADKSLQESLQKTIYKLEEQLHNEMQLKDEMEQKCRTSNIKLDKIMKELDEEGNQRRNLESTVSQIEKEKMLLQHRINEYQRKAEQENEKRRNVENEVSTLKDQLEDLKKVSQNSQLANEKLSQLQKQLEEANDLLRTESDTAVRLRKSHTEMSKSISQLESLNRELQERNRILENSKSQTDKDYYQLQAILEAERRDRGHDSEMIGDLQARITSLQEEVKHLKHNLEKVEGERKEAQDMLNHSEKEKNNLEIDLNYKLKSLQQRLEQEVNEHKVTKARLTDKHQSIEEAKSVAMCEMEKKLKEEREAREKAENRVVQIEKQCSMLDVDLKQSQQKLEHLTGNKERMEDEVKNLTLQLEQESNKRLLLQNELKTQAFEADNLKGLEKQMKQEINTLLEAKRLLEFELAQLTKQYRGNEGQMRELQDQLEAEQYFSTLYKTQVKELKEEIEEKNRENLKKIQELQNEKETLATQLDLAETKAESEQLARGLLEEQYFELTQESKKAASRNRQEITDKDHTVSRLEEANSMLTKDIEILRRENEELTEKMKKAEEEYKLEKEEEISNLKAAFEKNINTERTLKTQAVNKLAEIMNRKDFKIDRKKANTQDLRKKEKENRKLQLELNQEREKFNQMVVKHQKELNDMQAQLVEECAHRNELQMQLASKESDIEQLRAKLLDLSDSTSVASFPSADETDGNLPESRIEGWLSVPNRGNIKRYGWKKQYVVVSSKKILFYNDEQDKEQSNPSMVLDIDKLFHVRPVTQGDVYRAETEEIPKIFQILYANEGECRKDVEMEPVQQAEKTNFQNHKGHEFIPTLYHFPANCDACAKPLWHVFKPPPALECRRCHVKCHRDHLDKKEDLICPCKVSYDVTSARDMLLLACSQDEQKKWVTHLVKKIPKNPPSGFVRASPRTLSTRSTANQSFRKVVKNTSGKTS
Protocol: Assay for ROCK2 inhibition was performed using the protein construct N-terminal 6His-tagged ROCK2 catalytic domain 11-552 (Dundee University, UK). Protein was purified from a baculovirus expression system. Long S6 peptide ([…]) was used as substrate. Kinase reactions were carried out in 15 μl volume in a 96-well plate (black, half area) using 1.25 nM constitutively active ROCK2 kinase, 100 μM long S6 peptide, 20 μM ATP and test compound in DMSO (or DMSO only for controls). The final concentration of DMSO was 1%. Assay buffer was 50 mM HEPES pH 7.5 supplemented with 0.2 mM EDTA, 10 mM magnesium acetate, 0.01% Tween-20, 1 mM DTT and 0.01% BSA. Test compounds were pre-incubated with ROCK2 kinase for 1 hour before addition of ATP and long S6 peptide. After incubation for a further 1 hour, the amount of ADP produced was measured using ADP-Glo Kinase Assay (Promega) as per manufacturer's instructions. The luminescence was measured on a PHERAstar FS (BMG Labtech). The concentration of test compound required to inhibit ADP production by 50% (the IC50) was calculated using a four-parameter logistic function with software by Dotmatics. […] The category “+” refers to compounds with a ROCK2 or ROCK1 IC50 value of >10 μM. The category “++” refers to compounds with a ROCK2 or ROCK1 IC50 value of 10 to 3 μM. The category “+++” refers to compounds with a ROCK1 or ROCK2 IC50 value of 3 to 0.3 μM. The category “++++” refers to compounds with a ROCK1 or ROCK2 IC50 value of <0.3 μM.

T1 sequence (O75116 11-552): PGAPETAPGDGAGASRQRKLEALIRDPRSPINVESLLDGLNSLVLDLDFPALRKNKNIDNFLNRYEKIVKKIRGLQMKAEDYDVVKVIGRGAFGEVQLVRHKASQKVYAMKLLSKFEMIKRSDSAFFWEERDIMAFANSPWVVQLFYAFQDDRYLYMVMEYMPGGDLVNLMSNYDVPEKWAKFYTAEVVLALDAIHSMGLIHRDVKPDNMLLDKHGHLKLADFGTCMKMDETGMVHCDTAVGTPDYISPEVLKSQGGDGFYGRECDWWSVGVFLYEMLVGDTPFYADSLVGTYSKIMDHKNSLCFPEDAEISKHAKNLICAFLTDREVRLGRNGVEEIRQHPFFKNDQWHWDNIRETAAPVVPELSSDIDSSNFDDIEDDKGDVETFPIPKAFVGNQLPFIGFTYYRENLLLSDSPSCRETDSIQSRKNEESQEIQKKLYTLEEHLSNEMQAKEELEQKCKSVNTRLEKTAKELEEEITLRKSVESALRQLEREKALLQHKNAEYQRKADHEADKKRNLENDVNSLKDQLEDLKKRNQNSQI

| Structure (SMILES) | IC50 [1] [µM] | IC50 [2] [µM] |
| --- | --- | --- |
| CCn1nc(-c2cc(C)c(-c3cn(C)c(C4CC4)n3)cc2C)nc1Nc1ccc2c(c1)C(C)NC2=O (stereo not drawn) [Example 99] | < 0.3 | 3 to 10 |
| CCn1nc(-c2ccc(-c3ccc(C)c(C)n3)c(C)c2)nc1Nc1cc2c(cc1C)C(=O)NC2C (stereo not drawn) [Example 100] | < 0.3 | > 10 |
| CCn1nc(-c2ccc(-c3cc(C)cc(C)n3)c(C)c2)nc1Nc1cc2c(cc1C)C(=O)NC2C (stereo not drawn) [Example 101] | < 0.3 | 3 to 10 |
| CCn1nc(-c2ccc(-c3ccc(C)nc3)cc2)nc1Nc1cc2c(cc1C)C(=O)NC2 [Example 102] | < 0.3 | 0.3 to 3 |
| CCn1nc(-c2ccc(-c3ccc(C4CC4)cn3)c(C)c2)nc1Nc1cc2c(cc1C)C(=O)NC2C (stereo not drawn) [Example 103] | < 0.3 | 3 to 10 |
| CCn1nc(-c2ccc(-c3ccc(C)cn3)cc2)nc1Nc1cc2c(cc1C)C(=O)NC2C (stereo not drawn) [Example 104] | < 0.3 | 3 to 10 |
| CCn1nc(-c2cnc(-c3ccc(C4CC4)cc3)c(C)c2)nc1Nc1cc2c(cc1C)C(=O)NC2C (stereo not drawn) [Example 105] | < 0.3 | 3 to 10 |
| CCn1nc(-c2cc(C)c(-c3ccc(C4CC4)nc3)cc2F)nc1Nc1ccc2c(c1)C(C)NC2=O (stereo not drawn) [Example 106] | < 0.3 | 3 to 10 |
| CCn1nc(-c2ccc(-c3nc(C)ccc3C)c(C)c2)nc1Nc1cc2c(cc1C)C(=O)NC2C (stereo not drawn) [Example 107] | 3 to 10 | > 10 |
| CCn1nc(-c2ccc(-c3cn(C)c(C4CC4)n3)c(F)c2)nc1Nc1ccc2c(c1)C(C)NC2=O (stereo not drawn) [Example 108] | < 0.3 | 3 to 10 |
| CCn1nc(-c2cc(C)c(-c3ccc(C4CC4)cn3)cc2F)nc1Nc1cc2c(cc1C)C(=O)NC2C (stereo not drawn) [Example 109] | < 0.3 | 3 to 10 |
| CCn1nc(-c2ccc(-c3ccc(C)nc3)nc2)nc1Nc1ccc2c(c1)C(C)NC2=O (stereo not drawn) [Example 110] | < 0.3 | > 10 |
| CCn1nc(-c2cc(C)c(-c3ccc(C4CC4)nc3)cc2C)nc1Nc1ccc2c(c1)C(C)NC2=O (stereo not drawn) [Example 111] | < 0.3 | > 10 |
| CCn1nc(-c2ccc(-c3ccc(C4CC4)cn3)c(C)c2)nc1Nc1ccc2c(c1)C(C)NC2=O (stereo not drawn) [Example 112] | < 0.3 | > 10 |
| CCn1nc(-c2cc(C)c(-c3cn(C)c(C4CC4)n3)cc2F)nc1Nc1ccc2c(c1)C(C)NC2=O (stereo not drawn) [Example 113] | < 0.3 | 3 to 10 |
| CCn1nc(-c2cc(C)c(-c3ccc(C4CC4)cn3)cc2C)nc1Nc1cc2c(cc1C)C(=O)NC2C (stereo not drawn) [Example 114] | < 0.3 | > 10 |
| CCn1nc(-c2ccc(-c3ccc(C)nc3)c(C(=O)OC)c2)nc1Nc1cc2c(cc1C)C(=O)NC2C (stereo not drawn) [Example 115] | < 0.3 | > 10 |
| CCn1nc(-c2ccc(C3=CCN(C)CC3)cc2)nc1Nc1cc2c(cc1C)C(=O)NC2C (stereo not drawn) [Example 116] | 3 to 10 | > 10 |
| CCn1nc(-c2ccc(C3=CCN(C)CC3)cc2C)nc1Nc1cc2c(cc1C)C(=O)NC2C (stereo not drawn) [Example 117] | 0.3 to 3 | > 10 |
| CCn1nc(-c2ccc(C3=CCN(CC(F)(F)F)C3)c(C)c2)nc1Nc1cc2c(cc1C)C(=O)NC2C (stereo not drawn) [Example 118] | < 0.3 | > 10 |
| CCn1nc(-c2ccc(-c3ccc(C)nc3)c(C(C)(C)O)c2)nc1Nc1cc2c(cc1C)C(=O)NC2C (stereo not drawn) [Example 119] | 0.3 to 3 | > 10 |
| CCn1nc(-c2cc(C)c(-c3ccc(C)cn3)cc2F)nc1Nc1cc2c(cc1C)C(=O)NC2C (stereo not drawn) [Example 120] | < 0.3 | > 10 |
| CCn1nc(-c2cnc(-c3ccc(C4CC4)nc3)c(C)c2)nc1Nc1cc2c(cc1C)C(=O)NC2C (stereo not drawn) [Example 121] | < 0.3 | > 10 |

| Structure (SMILES) | IC50 [1] [µM] | IC50 [2] [µM] |
| --- | --- | --- |
| CCn1nc(-c2ccc(-c3cn(C)c(C4CC4)n3)cc2C)nc1Nc1cc2c(cc1C)C(=O)NC2C (stereo not drawn) [Example 122] | < 0.3 | 3 to 10 |
| CCn1nc(-c2ccc(C3CCN(CC(F)(F)F)CC3)cc2)nc1Nc1cc2c(cc1C)C(=O)NC2C (stereo not drawn) [Example 123] | 0.3 to 3 | > 10 |
| CCn1nc(-c2ccc(-c3ccn(CC(F)(F)F)c3)cc2)nc1Nc1cc2c(cc1C)C(=O)NC2C (stereo not drawn) [Example 124] | < 0.3 | 3 to 10 |
| CCn1nc(-c2ccc(-c3ccc(C)nc3)c(C(C)=O)c2)nc1Nc1cc2c(cc1C)C(=O)NC2C (stereo not drawn) [Example 125] | < 0.3 | > 10 |
| CCn1nc(-c2ccc(-n3cnc(C4CC4)c3)cc2C)nc1Nc1cc2c(cc1C)C(=O)NC2C (stereo not drawn) [Example 126] | < 0.3 | 3 to 10 |
| CCn1nc(-c2ccc(C3CCN(C(C)C(F)(F)F)CC3)cc2)nc1Nc1cc2c(cc1C)C(=O)NC2C (stereo not drawn) [Example 127] | 0.3 to 3 | 0.3 to 3 |
| CCn1nc(-c2ccc(C3CCN(C)CC3)cc2C)nc1Nc1cc2c(cc1C)C(=O)NC2C (stereo not drawn) [Example 128] | > 10 | > 10 |
| CCn1nc(-c2ccc(-c3ccn(C)c3)c(C)c2)nc1Nc1cc2c(cc1C)C(=O)NC2C (stereo not drawn) [Example 129] | < 0.3 | 3 to 10 |
| CCn1nc(-c2ccc(-c3ccc(C4CC4)nc3)cc2)nc1Nc1cc2c(cc1F)C(=O)NC2C (stereo not drawn) [Example 130] | < 0.3 | 3 to 10 |
| CCn1nc(-c2ccc(C3CCN(CC(F)(F)F)CC3)cc2C)nc1Nc1cc2c(cc1C)C(=O)NC2C (stereo not drawn) [Example 131] | < 0.3 | > 10 |
| CCn1nc(-c2ccc(-c3ccc(C)nc3)cc2F)nc1Nc1cc2c(cc1C)C(=O)NC2C (stereo not drawn) [Example 132] | < 0.3 | 3 to 10 |
| CCn1nc(-c2cc(C)c(-c3ccc(C)cn3)cc2C)nc1Nc1ccc2c(c1)C(C)NC2=O (stereo not drawn) [Example 133] | < 0.3 | > 10 |
| CCn1nc(-c2cc(C)c(-c3ccc(C4CC4)cn3)cc2F)nc1Nc1ccc2c(c1)C(C)NC2=O (stereo not drawn) [Example 134] | < 0.3 | > 10 |
| CCn1nc(-c2cc(C)c(-c3ccc(C4CC4)cn3)cc2C)nc1Nc1ccc2c(c1)C(C)NC2=O (stereo not drawn) [Example 135] | < 0.3 | > 10 |
| CCn1nc(-c2ccc(-c3ccn(C)c3)cc2)nc1Nc1cc2c(cc1C)C(=O)NC2C (stereo not drawn) [Example 136] | < 0.3 | 3 to 10 |
| CCn1nc(-c2ccc(-c3ccc(C4CC4)cn3)nc2)nc1Nc1cc2c(cc1C)C(=O)NC2C (stereo not drawn) [Example 137] | < 0.3 | 0.3 to 3 |
| CCn1nc(-c2ccc(C3CCN(CC(F)(F)F)C3)c(C)c2)nc1Nc1cc2c(cc1C)C(=O)NC2C (stereo not drawn) [Example 138] | < 0.3 | > 10 |
| CCn1nc(-c2ccc(-c3ccn(CC(F)(F)F)c3)c(C)c2)nc1Nc1cc2c(cc1C)C(=O)NC2C (stereo not drawn) [Example 139] | < 0.3 | 0.3 to 3 |
| CCn1nc(-c2ccc(C3CCCN(C)C3)c(C)c2)nc1Nc1cc2c(cc1C)C(=O)NC2C (stereo not drawn) [Example 140] | > 10 | > 10 |
| CCn1nc(-c2ccc(C3CCNCC3)c(C)c2)nc1Nc1cc2c(cc1C)C(=O)NC2C (stereo not drawn) [Example 141] | 3 to 10 | > 10 |
| CCn1nc(-c2ccc(C3CCN(C)CC3)cc2)nc1Nc1cc2c(cc1C)C(=O)NC2C (stereo not drawn) [Example 142] | > 10 | > 10 |
| CCn1nc(-c2ccc(C3CCCN(CC(F)(F)F)C3)cc2)nc1Nc1cc2c(cc1F)C(=O)NC2C (stereo not drawn) [Example 143] | 0.3 to 3 | > 10 |
